Assay results from patent US11154533B2, “Topical compositions and methods for treating inflammatory skin diseases” (Azora Therapeutics, Inc., priority 2019, dated 2021).

Assays:
Experiment in all cases: Pharmacodynamics in Th17-stimulated human skin on Franz cell, qPCR
Type in all cases: cell-based
Conditions in all cases: control added to receptor solution at 40 hours and 16 hours prior to Th17 stimulation
S100A7 = test system: S100A7
Experimental: (§1) Example 5 describes results of a study on the pharmacodynamics of composition identified as formulation identification no. OO14. In this study, human skin placed on a static in vitro diffusion cell and a fixed amount of the formulation was applied to the skin. The formulation was applied to the skin at either 16 hours prior to or both 40 hours and 16 hours prior to Th17 stimulation. The receptor solution was replaced with the Th17 stimulation media was incubated for 24 hours prior to harvesting. […] As a control, 0.01% betamethasone (BMV) was added to the receptor solution at both 40 hours and 16 hours prior to Th17 stimulation.
(§2) Freshly excised human skin was dermatomed to 750 microns with the stratum corneum intact and placed on a static Franz cell employing ˜0.6 cm^2 of skin. 10 μL of a topical formulation OO14 containing 0.079% synthetic indirubin was applied to the skin at either 16 hours prior to stimulation or both 40 hours and 16 hours prior to Th17 stimulation. As a control, 0.01% betamethasone (BMV) was added to the receptor solution at both 40 hours and 16 hours prior to Th17 stimulation. The Th17 stimulation media contains a mixture of cytokines and antibodies shown to induce Th17 polarization and was made and added as described in the skin resident immune cell activation assay in Smith S. H. et al., PLoS ONE 11(2): e0147979. The skin was cultured for an additional 24 hours prior to harvesting for qPCR and staining for AhR activation.

IL1-beta = test system: IL1-beta
Experimental: as §1, §2

IL17-alpha = test system: IL17-alpha
Experimental: as §1, §2

IL8 = test system: IL8
Experimental: as §1, §2

## C[C@H]1C[C@H]2[C@@H]3CCC4=CC(=O)C=C[C@]4(C)[C@@]3(F)[C@@H](O)C[C@]2(C)[C@@]1(O)C(=O)CO [0.01% BMV, betamethasone]
S100A7
  % Inhibition Compared to Th17, S100A7: N/I* (Not Inhibited compared to Th17)
IL1-beta
  % Inhibition Compared to Th17, IL1-beta: 58.66%
IL17-alpha
  % Inhibition Compared to Th17, IL17-alpha: 96.99%
IL8
  % Inhibition Compared to Th17, IL8: 14.01%
